{"source": "paper PMC11915803", "about": "“Class B scavenger receptor resists WSSV replication by recognizing the viral lipid molecule and promoting phagocytosis” (Journal of Virology, 2025)", "molecular_target": "T1, PcSRB (rPcSRB)", "T1 construct": "recombinant, pET-32a(+) BamHI/XhoI, His-tagged, tag kept", "assay": "microscale thermophoresis, RED-tris-NTA labelled protein", "assay_type": "binding, Procambarus clarkii", "conditions": "PBS-T; His-tagged protein labelled, ligand unlabelled", "data": [{"smiles": "CC(C)CCC[C@@H](C)[C@H]1CC[C@H]2[C@@H]3CC=C4C=CCC[C@]4(C)[C@H]3CC[C@]12C", "note": "[CD3,5, cholesta-3,5-diene]", "values": [{"measurement": "Kd", "value": 4.5, "unit": "µM"}]}]}
